The values below come from patent publication US20250213705A1, “PSMA TARGETING LIGANDS AND METHODS OF USE” (Bright Peak Therapeutics AG, priority 2023, published 2025).

For assay [1], the target named is Recombinant Human PSMA/FOLH1 Protein (Homo sapiens (Human), UniProt Q04609). Kind of assay: Inhibition assay (Amplex Red glutamic acid/glutamate oxidase, NAAG substrate). It counts as biochemical. The settings on record: Target PSMA, average of N replicates; for IC50: PSMA 5 nM, NAAG 40 μM; for Ki: calculated based on Cheng-Prusoff equation. The method, then:
Amplex™ Red Glutamic Acid/Glutamate Oxidase Assay Kit Catalog number: A12221 (Thermofisher); Recombinant Human PSMA/FOLH1 Protein, CF (rnd systems); N-Acetyl-Asp-Glu (NAAG) (Sigma Aldrich; 96 well half area plate; Enspire plate reader.
Prepare a working solution of 100 μM Amplex® Red reagent containing 0.25 U/mL HRP, 0.08 U/mL L-glutamate oxidase, 0.5 U/mL 1-glutamate-pyruvate transaminase, 200 μM L-alanine and keep protected from light. […] Final concentration is 5 nM. Transfer 10 μl/well of the inhibitor solution previously prepared in a separate 96 wells/plate.
Pipette 20 μl/well of the working solution prepared above. Incubate the reactions for 30 min at 37° C., protected from light. Because the assay is continuous (not terminated), fluorescence may be measured at multiple time points to follow the kinetics of the reactions. Measure the fluorescence in a fluorescence microplate reader using excitation in the range of 530-560 nm and emission detection at ˜590 nm. Ec50s were determined with GraphPad Prism. Ki is calculated based on Cheng-Prusoff equation.

The next assay has as its target human FOLH1 (Homo sapiens (Human), UniProt Q04609). Kind of assay: SPR analysis of binding kinetics to biotinylated FOLH1 (Biacore 8K). Conditions: ligand PSMA; for Kon: association rate; for koff: dissociation rate; for Kd: kinetic 1:1 binding model. On the procedure:
The interaction of PSMA-binding variants with human FOLH1 was measured with Surface Plasmon Resonance (SPR) technology. Biotinylated FOLH1 was captured at a concentration of 30 μg/mL onto a Streptavidin chip.
Binding kinetics of the analytes were measured with a Biacore 8K instrument in two-fold serial dilutions starting at 500 nM down to 1.95 nM in single cycle kinetic measurements. After each cycle, needles were washed with 50% DMSO. To measure the association to the FOLH1 protein, the samples were injected with a flow rate of 30 μL/min for 90 s, followed by 1200 s buffer only to detect the dissociation. The used running buffer was 1×PBS with 0.05% Tween20 and 2% DMSO. The relative response units (RU, Y-axis) are plotted against time (s, X-axis) and analyzed in a kinetic 1:1 binding model.
In a different setup, biotinylated FOLH1 was captured at a concentration of 0.8 μg/mL and the running buffer was 1×PBS with 0.05% Tween20.
In general terms: In SPR one partner is held on a chip, and binding of the other changes the refractive index at the surface.

The term IC50 denotes the concentration at which inhibition is half-maximal. As usually defined, the Ki is a dissociation constant, usually derived from enzyme kinetics or from competition with a known ligand. A word on the koff: it is the first-order rate constant of dissociation. Usually Kd stands for the concentration at which binding is half-saturated.

human FOLH1, sequence (Q04609 whole entry): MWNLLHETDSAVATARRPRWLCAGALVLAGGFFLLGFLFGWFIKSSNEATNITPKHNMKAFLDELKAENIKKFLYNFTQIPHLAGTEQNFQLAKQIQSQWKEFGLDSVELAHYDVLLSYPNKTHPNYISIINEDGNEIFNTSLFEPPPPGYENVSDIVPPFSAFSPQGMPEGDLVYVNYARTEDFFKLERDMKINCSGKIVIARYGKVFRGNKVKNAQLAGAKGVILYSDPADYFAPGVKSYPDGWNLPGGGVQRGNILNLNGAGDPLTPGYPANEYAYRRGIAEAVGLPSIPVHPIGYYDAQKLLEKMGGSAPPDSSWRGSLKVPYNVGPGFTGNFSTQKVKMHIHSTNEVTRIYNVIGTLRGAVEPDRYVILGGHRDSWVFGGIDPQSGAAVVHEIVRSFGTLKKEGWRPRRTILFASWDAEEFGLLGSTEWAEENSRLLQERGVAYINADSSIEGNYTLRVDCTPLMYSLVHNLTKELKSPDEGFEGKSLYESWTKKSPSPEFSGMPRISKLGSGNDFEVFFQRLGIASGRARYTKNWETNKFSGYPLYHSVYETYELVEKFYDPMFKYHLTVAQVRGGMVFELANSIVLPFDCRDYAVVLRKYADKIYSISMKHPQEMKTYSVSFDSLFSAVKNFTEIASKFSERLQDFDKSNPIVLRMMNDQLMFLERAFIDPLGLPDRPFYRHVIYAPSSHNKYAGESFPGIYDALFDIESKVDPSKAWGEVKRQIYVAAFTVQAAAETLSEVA
Recombinant Human PSMA/FOLH1 Protein, sequence (Q04609 whole entry): as above

On to `CC(=O)NCCOCCOCCOCCC(=O)N[C@@H](CCCOc1ccc(F)cc1F)C(=O)NC[C@H]1CC[C@H](C(=O)N[C@@H](Cc2ccc3ccccc3c2)C(=O)NCCCC[C@H](NC(=O)N[C@@H](CCC(=O)O)C(=O)O)C(=O)O)CC1` [Compound 40], for which, in assay [1], the IC50 amounted to 155 nM and the Ki is 1.11 nM. Also, on human FOLH1, the Kon is 153000 1.ms, the koff worked out at 0.000249 s⁻¹ and binding was characterised by a dissociation constant (Kd) of 1.62 nM.

`CC(=O)NCCOCCOCCOCCC(=O)NC[C@H]1CC[C@H](C(=O)N[C@@H](Cc2ccccc2)C(=O)NCCCC[C@H](NC(=O)N[C@@H](CCC(=O)O)C(=O)O)C(=O)O)CC1` [Compound 17]: in assay [1], the IC50 stood at 92.6 nM and the Ki was 0.662 nM. Further, at human FOLH1, the Kon is reported as 125000 1.ms, the koff is 0.000207 s⁻¹ and binding was put at a Kd of 1.65 nM.

With `CC(=O)NCCOCCOCCOCCC(=O)N(CCCCOc1cc(C(F)(F)F)cc(C(F)(F)F)c1)CC(=O)N[C@@H](Cc1ccc2ccccc2c1)C(=O)NCCCC[C@H](NC(=O)N[C@@H](CCC(=O)O)C(=O)O)C(=O)O` [Compound 88], in assay [1], the IC50 was 63.3 nM and the Ki is 0.452 nM. Besides, on human FOLH1, the Kon is 215000 1.ms, the koff is 0.000329 s⁻¹ and binding was put at a Kd of 1.53 nM.

`CC(=O)NCCOCCOCCOCCC(=O)N(CCCOc1cc(C#N)cc(C#N)c1)CC(=O)N[C@@H](Cc1ccc2ccccc2c1)C(=O)NCCCC[C@H](NC(=O)N[C@@H](CCC(=O)O)C(=O)O)C(=O)O` [Compound 78]: at human FOLH1, the Kon is 487000 1.ms and the koff was 0.000208 s⁻¹.

Take `CC(=O)NCCOCCOCCOCCC(=O)NC[C@H]1CC[C@H](C(=O)N[C@@H](Cc2ccc3ccccc3c2)C(=O)NCCCC[C@H](NC(=O)N[C@@H](CCc2n[nH]c(=O)o2)C(=O)O)C(=O)O)CC1` [Compound 48]: in assay [1], the IC50 was determined as 10300 nM and the Ki was 73.5 nM. Also, binding on human FOLH1 was put at a Kd of 1650 nM.

As to `CC(=O)NCCOCCOCCOCCC(=O)N1C[C@H](NC(=O)COc2cc(C#N)cc(C#N)c2)C[C@H]1C(=O)NCC(=O)N[C@@H](Cc1ccc2ccccc2c1)C(=O)NCCCC[C@H](NC(=O)N[C@@H](CCC(=O)O)C(=O)O)C(=O)O` [Compound 89], in assay [1], the IC50 amounted to 93.5 nM and the Ki was 0.669 nM. Also, at human FOLH1, the Kon was 121000 1.ms, the koff was 0.000311 s⁻¹ and the Kd turned out to be 2.58 nM.

Consider `CC(=O)NCCOCCOCCOCCC(=O)NC[C@H]1CC[C@H](C(=O)N[C@@H](Cc2ccc(-c3ccccc3)cc2)C(=O)NCCCC[C@H](NC(=O)N[C@@H](CCC(=O)O)C(=O)O)C(=O)O)CC1` [Compound 7], for which, in assay [1], the IC50 is 171 nM and the Ki is 1.23 nM. Moreover, at human FOLH1, the Kon is listed as 293000 1.ms, the koff is 0.00167 s⁻¹ and binding was characterised by a dissociation constant (Kd) of 5.72 nM.

With `CC(=O)NCCOCCOCCOCCC(=O)N[C@@H](Cc1ccc(C(=O)O)cc1)C(=O)NCCC(=O)N[C@@H](Cc1ccc2ccccc2c1)C(=O)NCCCC[C@H](NC(=O)N[C@@H](CCC(=O)O)C(=O)O)C(=O)O` [Compound 95], in assay [1], the IC50 was 11.5 nM and the Ki was 0.0823 nM. Moreover, at human FOLH1, the Kon is recorded as 124000 1.ms, the koff is 0.000242 s⁻¹ and the Kd stood at 1.95 nM.

`CC(=O)NCCOCCOCCOCCC(=O)NC[C@H]1CC[C@H](C(=O)N[C@@H](Cc2ccc(OCc3ccccc3)cc2)C(=O)NCCCC[C@H](NC(=O)N[C@@H](CCC(=O)O)C(=O)O)C(=O)O)CC1` [Compound 16]: in assay [1], the IC50 was 331 nM and the Ki was 2.37 nM. At human FOLH1, the Kon is given as 461000 1.ms, the dissociation rate constant (koff) is 0.00356 s⁻¹ and binding was put at a Kd of 7.73 nM.

Turning to `CC(=O)NCCOCCOCCOCCC(=O)NC[C@H]1CC[C@H](C(=O)N[C@@H](Cc2cccc(C(=O)O)c2)C(=O)NCCCC[C@H](NC(=O)N[C@@H](CCC(=O)O)C(=O)O)C(=O)O)CC1` [Compound 10], in assay [1], the IC50 stood at 21.3 nM and the Ki was 0.152 nM. Besides, on human FOLH1, the Kd amounted to 2.02 nM.

In the case of `CC(=O)NCCOCCOCCOCCC(=O)N1C[C@H](NC(=O)CCCOc2cc(C#N)cc(C#N)c2)C[C@H]1C(=O)NCC(=O)N[C@@H](Cc1ccc2ccccc2c1)C(=O)NCCCC[C@H](NC(=O)N[C@@H](CCC(=O)O)C(=O)O)C(=O)O` [Compound 91], at human FOLH1, the Kon is 71500 1.ms and the koff is 0.000258 s⁻¹.

Take `CC(=O)NCCOCCOCCOCCC(=O)NC[C@H]1CC[C@H](C(=O)N[C@@H](Cc2ccc3ccccc3c2)C(=O)NCCCC[C@H](NC(=O)N[C@@H](CC(=O)O)C(=O)O)C(=O)O)CC1` [Compound 23]: on human FOLH1, the Kon is given as 291000 1.ms and the koff turned out to be 0.0349 s⁻¹.

`CC(=O)NCCOCCOCCOCCC(=O)N[C@@H]1C[C@@H](C(=O)NCC(=O)N[C@@H](Cc2ccc3ccccc3c2)C(=O)NCCCC[C@H](NC(=O)N[C@@H](CCC(=O)O)C(=O)O)C(=O)O)N(C(=O)CCCOc2cc(C#N)cc(C#N)c2)C1` [Compound 92]: on human FOLH1, the Kon was 297000 1.ms and the koff amounted to 0.000301 s⁻¹.

On to `CC(=O)NCCOCCOCCOCCC(=O)N(CCCOc1cc(C(F)(F)F)cc(C(F)(F)F)c1)CC(=O)N[C@@H](Cc1ccc2ccccc2c1)C(=O)NCCCC[C@H](NC(=O)N[C@@H](CCC(=O)O)C(=O)O)C(=O)O` [Compound 86], for which, at human FOLH1, the Kon was 339000 1.ms and the koff worked out at 0.000397 s⁻¹.

`CC(=O)NCCOCCOCCOCCC(=O)N[C@@H]1C[C@@H](C(=O)N[C@@H](Cc2ccc3ccccc3c2)C(=O)NCCCC[C@H](NC(=O)N[C@@H](CCC(=O)O)C(=O)O)C(=O)O)N(C(=O)COc2cc(C#N)cc(C#N)c2)C1` [Compound 81]: on human FOLH1, the Kon was 90000 1.ms and the koff was 0.000371 s⁻¹.

For the molecule `CC(=O)NCCOCCOCCOCCC(=O)N[C@@H](Cc1ccc(C(=O)O)cc1)C(=O)NCC(=O)N[C@@H](Cc1ccc2ccccc2c1)C(=O)NCCCC[C@H](NC(=O)N[C@@H](CCC(=O)O)C(=O)O)C(=O)O` [Compound 94], at human FOLH1, the Kon is recorded as 112000 1.ms and the koff is 0.000261 s⁻¹.

Regarding `CC(=O)NCCOCCOCCOCCC(=O)NC[C@H]1CC[C@H](C(=O)N[C@@H](Cc2ccc3ccccc3c2)C(=O)NCCCC(=O)N[C@@H](CNC(=O)N[C@@H](CCC(=O)O)C(=O)O)C(=O)O)CC1` [Compound 33], in assay [1], the IC50 worked out at 583000 nM and the inhibitory constant (Ki) was 4170 nM.

`CC(=O)NCCOCCOCCOCCC(=O)N1C[C@H](NC(=O)CCCOc2cc(C#N)cc(C#N)c2)C[C@H]1C(=O)N[C@@H](Cc1ccc2ccccc2c1)C(=O)NCCCC[C@H](NC(=O)N[C@@H](CCC(=O)O)C(=O)O)C(=O)O` [Compound 80]: on human FOLH1, the Kon is 243000 1.ms and the koff came to 0.000599 s⁻¹.

For the molecule `CC(=O)NCCOCCOCCOCCC(=O)NC[C@H]1CC[C@H](C(=O)N[C@@H](Cc2cscn2)C(=O)NCCCC[C@H](NC(=O)N[C@@H](CCC(=O)O)C(=O)O)C(=O)O)CC1` [Compound 45], in assay [1], the IC50 stood at 554 nM and the Ki is 3.96 nM.

With `CC(=O)NCCOCCOCCOCCC(=O)N[C@@H](CCCOc1cc(C#N)cc(C#N)c1)C(=O)NCCC(=O)N[C@@H](Cc1ccc2ccccc2c1)C(=O)NCCCC[C@H](NC(=O)N[C@@H](CCC(=O)O)C(=O)O)C(=O)O` [Compound 53], in assay [1], the 50% inhibitory concentration (IC50) was 11.2 nM and the Ki is 0.0801 nM.

`C#CC[C@H](NC(=O)N[C@@H](CCCCNC(=O)[C@H](Cc1ccc2ccccc2c1)NC(=O)[C@H]1CC[C@H](CNC(=O)CCOCCOCCOCCNC(C)=O)CC1)C(=O)O)C(=O)O` [Compound 50]: in assay [1], the IC50 is 17600 nM and the Ki was 126 nM.
